Three compounds from ChEMBL document CHEMBL5543068, “Mitochondrial targeting derivatives of honokiol enhanced selective antitumor activity in NCI-H446 cells and decreased in vivo toxicity in Caenorhabditis elegans” (Eur J Med Chem, 2024) can be followed below.

One data set deals with HepG2. Description: Antiproliferative activity against human HepG2 cells assessed as reduction in cell viability incubated for 48 hrs by MTT assay. The format is functional, cell-based. The conditions noted are these: HepG2, 48 h.
Data set [1] can be described thus: Cytotoxicity against human HL7702 cells assessed as reduction in cell viability incubated for 48 hrs by MTT assay. The format is toxicity, cell-based. The conditions noted are these: HL7702 (L02) cells. (In general: Tetrazolium assays rely on reduction of a dye to a coloured formazan, in cell work by metabolically active cells.)
Data set [2] concerns NCI-H446. Description: Antiproliferative activity against human NCI-H446 cells assessed as reduction in cell viability incubated for 48 hrs by MTT assay. In kind it is functional, cell-based. Particulars: NCI-H446, 48 h.
For a further data set, the system named is A549. Description: Antiproliferative activity against human A549 cells assessed as reduction in cell viability incubated for 48 hrs by MTT assay. In kind it is functional, cell-based. Particulars: A549, 48 h.
Data set [3] can be described thus: Selectivity index, ratio of IC50 for cytotoxicity against HBE (human bronchial epithelial) cells to IC50 for antiproliferative activity against human NCI-H446 cells. In kind it is toxicity, cell-based. Particulars: HBE (human bronchial epithelial) cells versus NCI-H446 cells, read-out: Ratio IC50.
Data set [4] in a line: Cytotoxicity against HBE (human bronchial epithelial) cells assessed as reduction in cell viability incubated for 48 hrs by MTT assay. The format is toxicity, cell-based.
Data set [5] deals with NCI-H446. Description: Induction of apoptosis in human NCI-H446 cells assessed as crumpled nuclei at 2 uM incubated for 24 hrs by DAPI staining based fluorescence inverted microscopic analysis. In kind it is functional, cell-based.
Data set [6] has as its system NCI-H446. Description: Induction of apoptosis in human NCI-H446 cells assessed as early apoptotic cells at 0.25 uM incubated for 24 hrs by Annexin V-FITC/PI staining based flow cytometric analysis (reference value: 0.37 %). The format is functional.
The test system of data set [7] is NCI-H446. Description: Induction of apoptosis in human NCI-H446 cells assessed as late apoptotic cells at 2 uM incubated for 24 hrs by Annexin V-FITC/PI staining based flow cytometric analysis (reference value: 1.71 %). The format is functional.
The test system of data set [8] is NCI-H446. Description: Induction of apoptosis in human NCI-H446 cells assessed as necrotic cells at 0.25 uM incubated for 24 hrs by Annexin V-FITC/PI staining based flow cytometric analysis (reference value: 1.17 %). The format is functional. (A flow cytometer gives signals particle by particle.)
A further data set deals with Cell membrane. Description: Induction of mitochondrial membrane potential loss in human NCI-H446 cells at 0.25 uM incubated for 24 hrs by JC-1 staining based flow cytometric analysis. The format is cell membranes.
The subject of data set [9] is NCI-H446. Description: Induction of apoptosis in human NCI-H446 cells assessed as necrotic cells at 0.5 uM incubated for 24 hrs by Annexin V-FITC/PI staining based flow cytometric analysis (reference value: 1.17 %). In kind it is functional.
Data set [10] deals with NCI-H446. Description: Induction of apoptosis in human NCI-H446 cells assessed as late apoptotic cells at 0.5 uM incubated for 24 hrs by Annexin V-FITC/PI staining based flow cytometric analysis (reference value: 1.71 %). The format is functional.
Data set [11] has as its system NCI-H446. Description: Induction of apoptosis in human NCI-H446 cells assessed as viable cells at 2 uM incubated for 24 hrs by Annexin V-FITC/PI staining based flow cytometric analysis (reference value: 96.8 %). The format is functional. The conditions noted are these: read-out: Activity.
Data set [12] relates to NCI-H446. Description: Induction of apoptosis in human NCI-H446 cells assessed as viable cells at 0.5 uM incubated for 24 hrs by Annexin V-FITC/PI staining based flow cytometric analysis (reference value: 96.8 %). In kind it is functional. Particulars: read-out: Activity.
Data set [13] in a line: Toxicity in Caenorhabditis elegans assessed as reduction in growth by measuring body length at 20 to 100 uM measured after 72 hrs by […] microscopic analysis. The conditions noted are these: dose 20-100 µM.
Data set [14] relates to NCI-H446. Description: Induction of apoptosis in human NCI-H446 cells assessed as late apoptotic cells at 1 uM incubated for 24 hrs by Annexin V-FITC/PI staining based flow cytometric analysis (reference value: 1.71 %). The format is functional.
In data set [15] the test system is NCI-H446. Description: Induction of apoptosis in human NCI-H446 cells assessed as late apoptotic cells at 0.25 uM incubated for 24 hrs by Annexin V-FITC/PI staining based flow cytometric analysis (reference value: 1.71 %). The format is functional.
The test system of data set [16] is NCI-H446. Description: Induction of apoptosis in human NCI-H446 cells assessed as necrotic cells at 2 uM incubated for 24 hrs by Annexin V-FITC/PI staining based flow cytometric analysis (reference value: 1.17 %). In kind it is functional.
Data set [17] relates to NCI-H446. Description: Induction of ROS production in human NCI-H446 cells assessed as increase in intracellular ROS level at 2 uM incubated for 24 hrs by DCFH-DA staining based flow cytometric analysis. In kind it is functional, cell-based.
Data set [18] in a line: Toxicity in Caenorhabditis elegans assessed as reduction in movement speed at 100 uM measured after 72 hrs by […] microscopic analysis.
The subject of data set [19] is NCI-H446. Description: Induction of apoptosis in human NCI-H446 cells assessed as early apoptotic cells at 0.5 uM incubated for 24 hrs by Annexin V-FITC/PI staining based flow cytometric analysis (reference value: 0.37 %). In kind it is functional.
Data set [20] deals with NCI-H446. Description: Induction of apoptosis in human NCI-H446 cells assessed as early apoptotic cells at 1 uM incubated for 24 hrs by Annexin V-FITC/PI staining based flow cytometric analysis (reference value: 0.37 %). The format is functional.
Data set [21] has as its system NCI-H446. Description: Induction of apoptosis in human NCI-H446 cells assessed as early apoptotic cells at 2 uM incubated for 24 hrs by Annexin V-FITC/PI staining based flow cytometric analysis (reference value: 0.37 %). In kind it is functional.
Data set [22] relates to NCI-H446. Description: Induction of apoptosis in human NCI-H446 cells assessed as necrotic cells at 1 uM incubated for 24 hrs by Annexin V-FITC/PI staining based flow cytometric analysis (reference value: 1.17 %). In kind it is functional.
Data set [23] deals with NCI-H446. Description: Induction of apoptosis in human NCI-H446 cells assessed as viable cells at 0.25 uM incubated for 24 hrs by Annexin V-FITC/PI staining based flow cytometric analysis (reference value: 96.8 %). In kind it is functional. The conditions noted are these: read-out: Activity.
The subject of data set [24] is NCI-H446. Description: Induction of apoptosis in human NCI-H446 cells assessed as viable cells at 1 uM incubated for 24 hrs by Annexin V-FITC/PI staining based flow cytometric analysis (reference value: 96.8 %). In kind it is functional. Particulars: read-out: Activity.

Calls of active or inactive are those of the source. The rule behind the calls is not given here.

The term IC50 denotes the concentration needed to halve the response being measured.

For the compound `C=CCc1ccc(OC)c(-c2ccc(OCCCOC(=O)Cc3c4[n+](cc5c(OC)c(OC)ccc35)CCc3cc5c(cc3-4)OCO5)c(CC=C)c2)c1`, the IC50 in the data set with HepG2 was 3.14 µM; with NCI-H446 [2] it was 3.53 µM; in the data set on A549, 7.74 µM. The IC50 at 48 h in [1] came out at 4.76 µM; in [4] it was 21.6 µM. Moreover, the selectivity ratio in [3] was determined as 3.53.

Take `C=CCc1ccc(OCCC)c(-c2ccc(OCCCCCC[n+]3ccc(/C=C/c4c[nH]c5ccccc45)cc3)c(CC=C)c2)c1`: the results for the IC50 with HepG2, in the data set on NCI-H446 [2] and in the data set on A549 were 2.03 µM, 2.88 µM and 2.04 µM, respectively. In addition, the IC50 at 48 h is 1.85 µM in data set [1] and 7.78 µM in data set [4]. The outcome with NCI-H446 [5] was Active.

As for `C=CCc1ccc(O)c(-c2ccc(O)c(CC=C)c2)c1` [HONOKIOL], the Activity in the data set with NCI-H446 [6] was 0.38%; with NCI-H446 [7] it was 13%; in the data set with NCI-H446 [8] it was 2.17%; with NCI-H446 [9], 1.53%; in the data set with NCI-H446 [10], 1.98%; in data set [13], “Toxic”. Also, the Activity is 12.8% in the data set with NCI-H446 [14]; 2.04% in the data set with NCI-H446 [15]; 15.3% in the data set on NCI-H446 [16]; “Toxic” in [18]; 0.47% with NCI-H446 [19]; 1.1% in the data set on NCI-H446 [20]. Also, the Activity in the data set on NCI-H446 [21] amounted to 2.61%; in the data set with NCI-H446 [22], 12.8%. Also, the IC50 with HepG2 amounted to 41.4 µM; with NCI-H446 [2] it was 44.5 µM; in the data set with A549, 48.1 µM. The IC50 at 48 h in [1] amounted to 47.9 µM; in data set [4], 43.7 µM. In addition, the result in the data set on Cell membrane and in the data set on NCI-H446 [17] was inactive. For the same compound, in the data set with NCI-H446 [11], the viability at 2 µM amounted to 69.1%. Besides, the viability at 0.5 µM with NCI-H446 [12] is 96%. Besides, the viability at 0.25 µM in the data set on NCI-H446 [23] is 95.4%. Also, the viability at 1 µM in the data set on NCI-H446 [24] was found to be 73.3%.
